Common to all, as to type: cell-based, human
The test system of test [1] is DCs. As to the kind of experiment: Inhibition of MAPKs and PI3K/Akt activation before ACW stimulation of DCs. As to conditions: inhibitor 25 μM for 2 hours before ACW; for IL-12 production of DCs induced by ACW after inhibitor pretreatment: FIG. 13(B). As to the method:
To examine the signal transduction pathways involved in the effects of ACW on DC maturation, DCs were pretreated at 37° C. with ERK inhibitor PD98059 (25 μM), JNK inhibitor SP600125 (25 μM), p38 MAPK inhibitor SB203580 (25 μM) or PI3K/Akt inhibitor LY294002 (25 μM) for 2 hours before stimulation with ACW. After 2 days, phenotyping characteristics of DCs and IL-12 production in the supernatants of DCs were analyzed.

The subject of test [2] is DCs. Nature of the test: Polymyxin B test of CD86 and HLA-DR expression on induced DCs. Particulars: DCs treated with polymyxin B, then LPS or ACW; FIG. 7. As to the method:
Polymyxin B is an antibiotic used for inactivating potential LPS contamination when evaluating the activity of different agents on immune cells. Therefore, whether polymyxin B blocks the phenotypic maturation of ACW-induced DCs is determined. […] Accordingly, ACW is able to stimulate the maturation of DCs without LPS contamination.

The subject of test [3] is DCs. Nature of the test: IL-12 production in culture supernatants of stimulated DCs. On the set-up: unit not given here. As to conditions: LPS; PBS 235.53±2.54; FIG. 9. As to the method: The preparation method of DCs was mainly prepared and modified from Lin et al, 2006. First, peripheral blood mononuclear cells (PBMCs) were obtained from 12 healthy donors by centrifugation with the Ficoll-Hypaque (Amersham Bioscience, Uppsala, Sweden) density gradient centrifugation. PBMCs were cultured in RPMI 1640 medium supplemented with 10% fetal calf serum, 1 mM L-glutamin, 100 μg/ml streptomycin and 100 U/ml penicillin for 2 hours. The nonadherent cells were removed, and the T cells were purified by nylon wool separation, as the source of mononuclear T lymphocytes. T cells were loaded into the column and the eluted nonadherent cell fraction was rich in T cells. As determined by FACS, the resulting cell population was 80% T cells with a high expression of CD3. The adherent cells were cultured for 6 days in RPMI 1640 medium with 50 ng/ml of granulocyte-macrophage colony-stimulating factor (GM-CSF) and interleukin-4 (IL-4). […] ImDCs were further treated with phosphate buffered saline (PBS), LPS (100 ng/ml) and different doses of ACW for an additional 2 days and then assessed by flow cytometry.
Levels of IL-12, IL-10, IFN-γ and IL-4 in the culture supernatants from DCs or T cells were evaluated by using highly sensitive human cytokine assay kits (R&D Systems, Minneapolis, USA) according to the manufacturer's instructions.

Consider three compounds from patent US9241962B2, “Water extract of Antrodia camphorata for immunostimulatory effect and preparation method thereof” (Kaohsiung Medical University, priority 2009, dated 2016).

`COc1cccc(-c2cc(=O)c3ccccc3o2)c1N` [PD98059]: in test [1], the “IL-12 production of DCs induced by ACW after inhibitor pretreatment” value was “upregulates the IL-12 production”.

Take `C[S+]([O-])c1ccc(-c2nc(-c3ccncc3)c(-c3ccc(F)cc3)[nH]2)cc1` (centres unmarked) [SB203580]: the “CD86 expression of the ACW-treated DCs after inhibitor pretreatment” value in test [1] (FIG. 13(A)) is reported as “inhibit CD86 expression”. Besides, the “IL-12 production of DCs induced by ACW after inhibitor pretreatment” value in test [1] was “significantly blocks the up-regulation of IL-12 production”.

Take lipopolysaccharide [LPS]: in test [2], the “expressions of CD86 and HLA-DR after polymyxin B treatment in advance” value was “significantly inhibits the expressions of CD86 and HLA-DR”. Further, in test [3], the “concentration of IL-12 produced by DCs” value was 698.45.
